Test results reported in patent US20240317716A1, “METHOD FOR PREPARING XANTHINE OXIDASE INHIBITOR” (LG CHEM, LTD., priority 2021, published 2024).
Converted amounts (≈) assume the structure as drawn.

Test: Solubility of 1-(3-cyano-1-isopropyl-indol-5-yl)pyrazole-4-carboxylic acid in organic solvents
Type: physicochemical
Details: organic solvent or mixture

CC(C)n1cc(C#N)c2cc(-n3cc(C(=O)O)cn3)ccc21 [1-(3-Cyano-1-isopropyl-indol-5-yl)pyrazole-4-carboxylic acid]
solubility (in ACN): ≤ 100 µg/mL
solubility (in EtOAc): ≤ 100 µg/mL
solubility (in MeOH): ≤ 100 µg/mL
solubility (in acetone): 100 to 1000 µg/mL (≈ 340 to 3400 µM)
